Patent US20050020576A1, “Kappa agonist compounds and pharmaceutical formulations thereof” (priority 1996, published 2005)
Values joined by “and” are separate entries in the source; they are usually repeats but may differ in a detail not shown here. Equal entries are not always repeated. Structures can show the parent of a compound that is named as a salt. Where two headings read alike, the source gives them in different places.

Legend:
[1] = target: cloned human kappa receptor (Homo sapiens, UniProt P41145); experiment: biochemical; type: binding
[2] = tested on: formalin-induced flinching; experiment: animal or person; type: in vivo, male Sprague-Dawley rats; settings: for inhibition in vivo at 0.3 µM: Rattus norvegicus, read-out: Formalin (% A @ 300 nM) i. paw
[3] = read-out: Ki(nM) [3H]-Diprenorphin κ

Chain of cloned human kappa receptor (P41145 whole entry): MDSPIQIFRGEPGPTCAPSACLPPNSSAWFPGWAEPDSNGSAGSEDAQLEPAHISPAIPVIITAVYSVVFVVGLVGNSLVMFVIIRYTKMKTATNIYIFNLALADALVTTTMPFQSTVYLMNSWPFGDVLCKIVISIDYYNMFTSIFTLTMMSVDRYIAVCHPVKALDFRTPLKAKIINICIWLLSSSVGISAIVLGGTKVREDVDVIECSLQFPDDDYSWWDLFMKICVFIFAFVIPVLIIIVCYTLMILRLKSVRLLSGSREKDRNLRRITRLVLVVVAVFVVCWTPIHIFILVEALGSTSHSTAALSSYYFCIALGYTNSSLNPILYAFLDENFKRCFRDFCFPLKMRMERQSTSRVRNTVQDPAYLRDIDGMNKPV

Compound | Ki ([1]; Ki (nM) [3H]-Diprenorphin κ) [nM] | Late Phase Formalin (i. paw), % @ 300 ([2]; rat, in vivo) [% @ 300] | also measured
CS(=O)(=O)O[C@H]1CCN(CC2CN(S(C)(=O)=O)CCN2C(=O)Cc2ccc(Cl)c(Cl)c2)C1 (stereo partly drawn) [Example 1jj, 4-Methanesulfonyl-1-[(3,4-dichlorophenyl)acetyl]-2-(R,S)-[3-(S)-methanesulfonate-1-(pyrrolidinyl)methyl]piperazine hydrochloride] |  |  | Ki ([1]; Ki, nM 3H-Diprenorphin): 11.5 nM; inhibition in vivo at 0.3 µM [2]: 49%
COc1cc(CC(=O)N(C)[C@H](CN2CCCC2)c2ccccc2)c(S(=O)(=O)N(C)C)cc1OC [Example 136, 2-[2-(N-Dimethylsulfamoyl)-4,5-dimethoxyphenyl]-N-methyl-N-[(1S)-1-phenyl-2-[(1-pyrrolidinyl)ethyl]]acetamide] | 0.44 | 97 | 
CNS(=O)(=O)c1ccccc1CC(=O)N(C)C(CN1CCCC1)c1ccccc1F (racemic) [Example 147] | 10 | 56 | 
(S)-2-(2-N-Methylsulfonamido-2-aminophenyl)-N-methyl-N-1-(4-hydroxyphenyl)-2-(1-pyrrolidinyl)ethyl]acetamide [Example 129B] |  | >46 | Ki [1, 3]: 75 nM
COc1cc(CC(=O)N(C)[C@H](CN2CCCC2)c2ccccc2)c(S(=O)(=O)N2CCCC2)cc1OC [Example 134, 2-[2-(N-Pyrrolidinesulfamoyl)-4,5-dimethoxyphenyl]-N-methyl-N-[(1S)-1-phenyl-2-[(1-pyrrolidinyl)ethyl]]acetamide] | 0.26 | 99 | 
COC(=O)CNC(=O)c1ccccc1CC(=O)N(C)[C@H](CN1CCCC1)c1ccccc1 [Example 3mm, Methyl N-[2-(2-pheny)-N-methyl-N-{[1S]-1-phenyl-2-(1-pyrrolidinyl)ethyl}acetamido]2-oxo-glycinate hydrochloride] | 16.4 |  | Late Phase Formalin, % @ 300 ([2]; rat, in vivo): 53% @ 300
CC(=O)N1CCN(C(=O)Cc2ccc(Cl)c(Cl)c2)C(CN2CC[C@H](OC(=O)Cc3ccc(Cl)c(Cl)c3)C2)C1 (mixture of isomers) [Example 1w, 4-Acetyl-1-[(3,4-dichlorophenyl)acetyl]-2-(R,S)-[3-(S)-(3′,4′-dichlorophenyl acetate)-1-(pyrrolidinyl)methyl]piperazine hydrochloride] |  |  | Ki ([1]; Table IA, read-out: Ki(nM) (3H)-Diprenorphin): 1160 nM; inhibition in vivo at 0.3 µM [2]: 60%
COC(=O)N1CCN(C(=O)Cc2ccc(Cl)c(Cl)c2)C(CN2CCC[C@H]2COC(=O)Cc2ccc(Cl)c(Cl)c2)C1 (mixture of isomers) [Example 1k, Methyl-4-[(3,4-dichlorophenyl)acetyl]-3-(R,S)-[(2-(S)-pyrrolidinemethyl-3′,4′-dichlorophenyl acetate)methyl]-1-piperazinecarboxylate hydrochloride] |  |  | Ki ([1]; Ki, nM 3H-Diprenorphin): 51.5 nM; inhibition in vivo at 0.3 µM [2]: 95%
CN(C(=O)Cc1ccc(C(F)(F)F)cc1NS(C)(=O)=O)[C@H](CN1CC[C@H](O)C1)c1ccccc1 [Example 126, 2-(2-N-Methylsulfonamido-2-amino-4-trifluoromethylphenyl)-N-methyl-N-[(1S)-1-phenyl-2-[1-(3S)-(3-hydroxypyrrolidinyl)ethyl]]acetamide] | 0.61 | 93 | 
CN(C(=O)Cc1ccc(O)c(NS(C)(=O)=O)c1)[C@H](CN1CCCC1)c1ccccc1 [Example 124, 2-(3-N-Methylsulfonamido-3-amino-4-hydroxyphenyl)-N-methyl-N-[(1S)-1-phenyl-2-(1-pyrrolidinyl)ethyl]acetamide] | 5.6 | 77 | 
COc1ccc(C(CN2CCCC2)N(C)C(=O)Cc2ccccc2NS(C)(=O)=O)cc1 (racemic) [Example 128] |  | 56 | Ki ([1]; Table IIIB, read-out: Ki(nM) [3H]-Diprenorphin κ): 110 nM
COC(=O)N1CCN(C(=O)Cc2ccc(Cl)c(Cl)c2)C(CN2CC[C@H](OC(=O)Cc3ccc(Cl)c(Cl)c3)C2)C1 (mixture of isomers) [Example 1q, Methyl-4-[(3,4-dichlorophenyl)acetyl]-2-(R,S)-[3-(S)-(3′,4′-dichlorophenyl acetate)-1-(pyrrolidinyl)methyl]-1-piperazinecarboxylate hydrochloride] |  |  | Ki ([1]; Ki, nM 3H-Diprenorphin): 5.2 nM; inhibition in vivo at 0.3 µM [2]: 98%
COc1cc(CC(=O)N(C)[C@H](CN2CC[C@H](O)C2)c2ccccc2)c(S(=O)(=O)N2CCOCC2)cc1OC [Example 141, 2-[2-N-(Morpholinesulfamoyl)-4,5-dimethoxyphenyl]-N-methyl-N-[(1S)-1-phenyl-2-[1-(3S)-(3-hydroxypyrrolidinyl)ethyl]]acetamide] | 1.3 | 98 | 
COC(=O)N1CCN(C(=O)Cc2ccccc2N(S(C)(=O)=O)S(C)(=O)=O)C(CN2CCCC2)C1 (racemic) [Example 1d, Methyl-4-[(2-[N,N-bis-methylsulfonamido]phenyl)acetyl]-3-(R,S)-[(1-pyrrolidinyl)methyl]-1-piperazinecarboxylate hydrochloride] |  |  | Ki ([1]; Ki, nM 3H-Diprenorphin): 7.6 nM; inhibition in vivo at 0.3 µM [2]: 77%
CN(C(=O)Cc1cc2c(cc1S(=O)(=O)N(C)C)OCO2)[C@H](CN1CCCC1)c1ccccc1 [Example 132, 2-[2-(N-Dimethylsulfamoyl)-4,5-methylenedioxyphenyl]-N-methyl-N-[(1S)-1-phenyl-2-[(1-pyrrolidinyl)ethyl]]acetamide] | 0.25 | 100 | 
CN(C(=O)Cc1ccccc1NS(C)(=O)=O)[C@H](CN1CC[C@H](O)C1)c1ccccc1 [Example 125, 2-(2-N-Methylsulfonamido-2-aminophenyl)-N-methyl-N-[(1S)-1-phenyl-2-[1-(3S)-(3-hydroxypyrrolidinyl)ethyl]]acetamide] | 5.3 | 81 | 
CC(=O)N1CCN(C(=O)Cc2ccc(C(F)(F)F)cc2)C(CN2CCCC2)C1 (racemic) [(R,S-10b), hydrochloride] |  |  | Ki ([1]; Ki, nM 3H-Diprenorphin): 26 nM and 24 nM; Late Phase Formalin, % @ 300; i.paw ([2]; rat, in vivo): 89% @ 300
CNS(=O)(=O)c1ccc(CC(=O)N(C)[C@H](CN2CC[C@H](O)C2)c2ccccc2)cc1 [Example 146, 2-[4-N-(Methylsulfamoyl)-phenyl]-N-methyl-N-[(1S)-1-phenyl-2-[1-(3S)-(3-hydroxypyrrolidinyl)ethyl]]acetamide] | 1 | 52 | 
CS(=O)(=O)N1CCN(C(=O)Cc2ccc(Cl)c(Cl)c2)C(CN2CC[C@H](O)C2)C1 (mixture of isomers) [Example 1ll, 4-Methylsulphonyl-1-[(3,4-dichlorophenyl)acetyl]-2-(R,S)-[(3-(S)-hydroxy-1-pyrrolidinyl)methyl]piperazine hydrochloride] |  |  | Ki ([1]; Ki, nM 3H-Diprenorphin): 2.86 nM; inhibition in vivo at 0.3 µM [2]: 52%
COc1ccc(CC(=O)N(C)[C@H](CN2CC[C@H](O)C2)c2ccccc2)cc1NS(C)(=O)=O [Example 127, 2-(3-N-Methylsulfonamido-3-amino-4-methoxyphenyl)-N-methyl-N-[(1S)-1-phenyl-2-[1-(3S)-(3-hydroxypyrrolidinyl)ethyl]]acetamide] | 0.82 | 94 | 
CNS(=O)(=O)c1cc(OC)ccc1CC(=O)N(C)[C@H](CN1CCCC1)c1ccccc1 [Example 145, 2-[2-(N-Methylsulfamoyl)-4-methoxyphenyl]-N-methyl-N-[(1S)-1-phenyl-2-[(1-pyrrolidinyl)ethyl]]acetamide] |  | 83 | Ki [1, 3]: 20.5 nM
COC(=O)N1CCN(C(=O)Cc2ccc(Cl)c(Cl)c2)C(CN2CCCC2CO)C1 [Example 1l, Methyl-4-[(3,4-dichlorophenyl)acetyl]-3-(R)-[(2-(S)-pyrrolidinemethanol)methyl]-1-piperazinecarboxylate hydrochloride] |  |  | Ki ([1]; Ki, nM 3H-Diprenorphin): 3.5 nM; Formalin A50 mg/kg s.c. ([2]; rat, in vivo, sc): 1.7 mg/kg
CN(C(=O)Cc1ccc(Cl)c(Cl)c1)[C@H]1c2cc(NC(=O)/C=C\C(=O)O)ccc2CC[C@@H]1N1CCCC1 [II-24] |  |  | Ki ([1]; Ki (nM) [3H] Diprenorphin κ): 28 nM; Late Phase Formalin, % @ 300 μg ([2]; rat, in vivo): 69% @ 300 μg
CN(C(=O)Cc1ccccc1NS(C)(=O)=O)C(CN1CCCC1)c1ccc(O)cc1 (racemic) [Example 129A, (R,S)-2-(2-N-Methylsulfonamido-2-aminophenyl)-N-methyl-N-1-(4-hydroxyphenyl)-2-(1-pyrrolidinyl)ethyl]acetamide] | 59 | 46 | 
N-[1S. 2S-trans-4-Trifluoromethyl-N-methyl-N-[2-(1-pyrrolidinyl)cyclohexyl]-phenylacetamido]glycine Hydrochloride [Example 4j] |  |  | Ki ([1]; read-out: Ki(nM) [3H]-Diprenorphin): 10.3 nM; Formalin (% A @ 300 μg i-paw) ([2]; rat, in vivo): 91% @ 300
CS(=O)(=O)N1CCN(C(=O)Cc2ccc(Cl)c(Cl)c2)C(CN2CC[C@H](OC(=O)Cc3ccc(Cl)c(Cl)c3)C2)C1 (stereo partly drawn) [Example 1kk, 4-Methylsulphonyl-1-[(3,4-dichlorophenyl)acetyl]-2-(R,S)-[3-(S)-(3′,4′dichlorophenyl acetate)-1-(pyrrolidinyl)methyl]piperazine hydrochloride] |  |  | Ki ([1]; Ki, nM 3H-Diprenorphin): 5.1 nM; inhibition in vivo at 0.3 µM [2]: 52%
CN(C(=O)Cc1ccc(Cl)c(Cl)c1)[C@H](CN1CCCC1)c1cccc(NC(=O)CCC(=O)NCC(=O)O)c1 [Example 3j, 2-(3,4-Dichlorophenyl)-N-methyl-N-{(1R,S)-1-[3-(3-(((hydroxycarbonyl)-methyl)aminocarbonyl)propionamido)phenyl]-2-(1-pyrrolidinyl)ethyl}acetamide hydrochloride] | 2.3 |  | Late Phase Formalin, % @ 300 ([2]; rat, in vivo): 38% @ 300
CN(C(=O)Cc1cc2c(cc1S(=O)(=O)N(C)C)OCO2)[C@H](CN1CC[C@H](O)C1)c1ccccc1 [Example 133, 2-[2-(N-Dimethylsulfamoyl)-4,5-methylenedioxyphenyl]-N-methyl-N-[(1S)-1-phenyl-2-[1-(3S)-(3-hydroxypyrrolidinyl)ethyl]]acetamide] |  | 98 | Ki [1, 3]: 0.64 nM
